Here are results for three molecules from patent US12037354B2, “Cyclic pantetheine derivatives and uses thereof” (VectivBio Comet AG, priority 2018, dated 2024).

Assay [1] deals with Pkd1-/- mouse inner medullary collecting duct cells (mIMRFNPKD 5E4). In words: mPKD 3D cyst swelling assay (forskolin-induced), Example 818. As to conditions: 50 uM, after 72 hours of forskolin exposure. The assay is classed as cell-based. As for the experimental part:
Cell model and control compounds. mIMCD3 WT cells were obtained via ATCC and modified to create the mIMRFNPKD 5E4 cell line, which has a CRISPR-Cas mediated knockout for Pkd1 as described SLAS Discov. 2017 September; 22(8):974-984. doi: 10.1177/2472555217716056. Cells were cultured in DMEM/F12 (Sigma)+10% FBS (Sigma)+0.5% Pen/Strep (Gibco)+1% GluMax (Gibco). Control compounds used were forskolin (Calbiochem, 344282), Rapamycin (Selleckchem, S1039) and Staurosporin (Selleckchem, S1421).
The 3D mouse cyst swelling assay was performed with Pkd1^−/− mouse inner medullary collecting duct cells (mIMRFNPKD 5E4). The cyst swelling protocol that was used was described previously (SLAS Discov. 2017 September; 22(8):974-984. doi: 10.1177/2472555217716056), with further optimization.
3D culture and compound exposure. mIMRFNPKD 5E4 cells were mixed with Cyst-Gel (OcellO BV). 15 μL of cell-gel mix was pipetted to 384-well plates (Greiner μClear, Greiner Bio-One B.V.) using a CyBio Felix 96/60 robotic liquid dispenser (Analyik Jena AG). […]
Imaging and image analysis. […] Cyst area was determined by calculating for the area in px of each object in every in-focus plain. […] (N represented is number of wells) Fraction of apoptotic nuclei as an indicator of toxicity was calculated as the amount of nuclei without actin signal relative to the total amount of nuclei, both as count-measurements. […]

For assay [2], the system named is Monocytes differentiated to M1 macrophages. The assay can be described thus: M1 differentiation assay (TNFα, IL6, IL10 ELISA, FACS), Example 807. Format: cell-based, human. As for the experimental part:
Monocytes were isolated by positive isolation with CD14+ microbeads (Miltenyi, 130-050-201). Monocytes were 99% viable and were 96% purity as analyzed by FACS and CD14+(BD, 563561). 100,000 monocytes along with compounds at the dose of 10 and 50 μM were allowed to differentiate to macrophages with 10 ng/ml GMCSF (R&D, 15-GM-050/CF) in RPMI complete media (Invitrogen, 22400089) with 15% FBS (Hyclone SV30087.03) and 1% Penicillin-Streptomycin (Gibco, 15140-122). On day 2 and 4 half the media was refreshed with fresh GM-CSF and compounds at 10 and 50 μM dose. On day 6 the macrophages were matured with GMCSF, IFNγ (R&D 285-IF-100/CF) and LPS (Sigma, L6143) in the presence of 10 μM and 50 μM of compounds. After 24 h, supernatant was collected for the measurement of TNFα (DKW, 1117202) IL6 (DKW, 1110602), IL10 (DKW, 1110003) by ELISA. Macrophages were detached gently on ice with EDTA (Invitrogen, 15575-038) and analyzed by FACS (BD LSR Fortessa, 853492). Cells were stained for live/dead dye, surface and intracellular markers with fixation/permeabilization solution (BD, 554714) and ALIVE/DEAD™ Fixable Near-IR Dead Cell Stain Kit (BD, L34976), mouse anti human CD86 APC (BD, 555660), mouse anti-human CD163 PE (BD, 556018), mouse anti-human CD68 FITC (BD, 562117) or isotype controls anti-mouse IgG1 κ PE (BD, 559320) and anti-mouse IgG1 κ APC (BD, Anti mouse IgG1 κ APC (BD, 55571). Mature M1 macrophages were defined as CD86+CD68+CD163− and increase in TNFα, IL6, and decrease in IL-10.

Consider `COC(=O)/C=C/C(=O)SCCNC(=O)CCNC(=O)[C@@H]1OP(=O)(O)OCC1(C)C` [Compound 21], for which, in assay [1], the “% prevention of forskolin-induced cyst swelling” value is listed as at least 10%.
As to `CC(C)=CC(=O)SCCNC(=O)CCNC(=O)[C@@H]1OC(C)(C)OCC1(C)C` [Compound 850, S-2-(3-{[(R)-2,2,5,5-Tetramethyl-1,3-dioxan-4-yl]carbonylamino}propionylamino)ethyl 3-methyl-2-butenethioate], the “% decrease in Macrophage IL-6 Secretion” value in assay [2] (10 uM) was at least 30%. Moreover, the “% decrease in Macrophage TNFα Secretion” value in assay [2] (50 uM) is given as at least 30%.
Consider `CC1(C)OC(=O)C(CC(=O)SCCNC(=O)CCNC(=O)[C@@H]2OC(C)(C)OCC2(C)C)O1` (stereo partly drawn) [Compound 851], for which, in assay [2] (10 uM), the “% Increase in IL-10 Secretion” value is at least 30%, the “% decrease in Macrophage IL-6 Secretion” value is given as at least 30% and the “% decrease in Macrophage TNFα Secretion” value is reported as at least 30%.
